Results on three compounds are retold here after paper PMC11232401, “Characterization of antimalarial activity of artemisinin-based hybrid drugs” (Antimicrobial Agents and Chemotherapy, 2024).

Read-outs that look alike come from different tables or passages of the source.

Data set [1] relates to Ring stages of NF54 strain P. falciparum. Briefly: Antiplasmodial activity of drug combinations (pLDH, isobologram/FIC). The class given is cell-based. The conditions noted are these: Plasmodium falciparum, NF54, ring stages NF54; mean (95% CI); tested in parallel with the combination of the same line; read-out: IC50, Drugs alone. The protocol:
The activity of the drug combinations against the P. falciparum NF54 strain was determined as described above. In each experiment, drugs were tested alone and in combination. Twofold serial dilutions of the drug solutions were made using fixed molar ratios of 1:1, 1:3, and 3:1 for each combination and using two technical replicates (ranging from 200 to 1.0 nM). Parasite growth was determined by the pLDH method, as described above. IC50 values for each drug alone or in combination were determined, and an isobologram analysis was performed by plotting the fractional inhibitory concentrations (FIC) for each combination and its component drugs separately. Individual FIC values were calculated as the IC50 of the drug combination divided by the IC50 of the drug in isolation. A dashed line was plotted to indicate any additive effect and distinguish antagonism (above the dashed line) from synergism (below the dashed line). Three independent experiments were performed, each one containing two replicates. Each experiment was used to represent an isobologram analysis [mean and 95% confidence interval (CI)].
Values represent one experiment; each concentration of drug combination was tested in technical duplicate. Black dashed line indicates ΣFIC = 1 (absolute additivity). […] FIC index <1 is synergistic, ~1 is additive, and >1 is antagonistic. Nondetrimental interactions are 0.25 <ΣFIC <1.25.
^[a] Values are the mean and 95% confidence interval of one experiment for each concentration of compounds in duplicate.

In data set [2] the test system is F32-ART (resistant) early ring-stage parasites. Briefly: Ring-stage survival assay (RSA0-3h). The data set is classed as cell-based, Plasmodium falciparum. The following applies: 700 nM, 6 h pulse, 66 h growth. The protocol: Early ring-stage parasites (0–3 h post-invasion) of F32-ART and F32-TEM strains highly synchronized by Percoll-Sorbitol treatment were exposed to 700 nM of the drugs or 0.1% DMSO (control) for 6 h. Each drug was tested in duplicate. Parasite pellets were then washed in RPMI-1640 medium before being placed in drug-free culture conditions with 10% human serum and incubated for 66 h ([44]). Survival rates were assessed microscopically by two independent microscopists by counting the parasites in 10,000 RBCs. Three independent experiments were performed.

The subject of another data set is P. falciparum Dd2 strain. Details: method as in PMID 31290221, PMID 34832911, PMID 38559731. The conditions noted are these: asynchronous culture, SYBR Green I; read-out: IC50 (nM, median ± SEM) for P. falciparum Dd2 strain; cited from earlier work.
Another data set deals with P. berghei-infected mice. Details: method as in PMID 31290221, PMID 34832911, PMID 38559731. The following applies: Peters test; cited from earlier work.
The subject of another data set is P. falciparum 3D7 strain. Details: method as in PMID 31290221, PMID 34832911, PMID 38559731. The following applies: asynchronous culture, SYBR Green I; read-out: IC50 (nM, median ± SEM) for P. falciparum 3D7 strain; cited from earlier work.
For data set [3], the system named is heme (iron II)-initiated β-hematin formation. As to the kind of experiment: β-hematin inhibitory activity under reducing condition (R-BHIA). The data set is classed as biochemical. The conditions noted are these: for Fold changes, IC50 (10 minutes) to IC50 (120 minutes): R-BHIA; for IC50: mean (95% CI). The protocol:
The compounds were dissolved in DMSO and diluted in DMSO to six different concentrations (1.0–32 mM). Hemin (Fe^III[PPIX]Cl) (BioXtra, Sigma-Aldrich) was first dissolved in 0.1 M NaOH and then suspended in an 80:20 vol/vol mixture of DMSO and propionate buffer (0.1 M, pH 5.6) to a stock solution at 8 mM. Reduced glutathione (GSH) was dissolved in 0.1 M NaOH and then adjusted to 10 mM using propionate buffer (0.1 M, pH 5.6). […] Then, 20 µL of the drug was added, and the plates were incubated for 2 h at 37°C. The plastic film was removed after drug incubation, 160 µL propionate buffer (1.0 M, pH 5.6) was added, and plates were incubated for 18 h at 37°C. BHIA under the oxidizing condition (O-BHIA) was prepared in parallel without adding GSH. Controls included wells without drugs and wells containing PBS 1× instead of propionate buffer. Afterward, the plates were centrifuged, the supernatant was discarded, and the pellets of β-hematin crystals were washed twice with pure DMSO and then water. The resulting β-hematin crystals were then dissolved in 200 µL 0.1 M NaOH and diluted to a 1:8 ratio. Aliquots were then transferred into a new plate and read by UV-visible absorbance at […]. Percent of BHIA was calculated in comparison to untreated wells (no drugs), and IC50 was then calculated. Two independent experiments were performed using three replicates of each drug concentration ([46]).
Figure S6: A summary of IC50 values derived from β-hematin inhibitory activity (BHIA). Footnotes for table: ^[a,b^] Values are mean and 95% confidence interval of one experiment, each concentration in triplicate. ^[a] Using heme (Fe[II]PPIX[Cl]) as a starting reagent. ^[b] Using hematin (Fe[III]PPIX[OH]) as a starting reagent. ^[c] […] CQ = chloroquine. R-BHIA = reducing β-hematin inhibitory activity. O-BHIA = oxidizing β-hematin inhibitory activity.

The test system of a further data set is P. falciparum. As to the kind of experiment: Parasite growth inhibition (cell potency). The class given is cell-based. The conditions noted are these: Plasmodium falciparum; strain and exposure not stated at the place.
For data set [4] the following is noted: elimination half-life; cited from earlier work.
On the set-up of data set [5]: method as in PMID 15124211. The following applies: cited from earlier work.
Setting [6] is: reductive step 10 minutes, read-out: IC50 (µM) values of R-BHIA using heme (iron II), 10 minutes.
The mark [7] stands for this setting: reductive step 120 minutes, read-out: IC50 (µM) values of R-BHIA using heme (iron II), 120 minutes.

By IC50 is commonly meant the concentration needed to halve the response being measured. Regarding `CC1CCC2C(C)C(OC(=O)CCC(=O)OCCNc3ccnc4cc(Cl)ccc34)OC3OC4(C)CCC1C32OO4` (stereo not drawn) [Hybrid 2], the IC50 in data set [1] is 4.7 nM; with P. falciparum Dd2 strain, 2.3 ± 0.6 nM; with P. falciparum 3D7 strain, 4.5 ± 0.5 nM. Moreover, the “Survival rate (%) from the RSA0-3h, F32-ART (resistant)” value is reported as 14.8 ± 6% in [2] (listed as 2) and roughly 15% in data set [2] (listed as hybrid 2). The “In vivo parasitemia reduction (%)” value with P. berghei-infected mice was 89.4 ± 1.5%.
Turning to `COCCOCCOCCOCCn1c(-c2ccc(-n3cc(-c4ccc(OC5OC6OC7(C)CCC8C(C)CCC(C5C)C68OO7)cc4)nn3)cc2)nc2ccccc21` (stereo not drawn) [Hybrid 1], the IC50 is 2.2 nM in data set [1]; 609 µM in data set [3] (setting [6]); 284 µM in [3] (setting [7]); 3 ± 0.3 nM in the data set on P. falciparum Dd2 strain; 3 ± 0.2 nM with P. falciparum 3D7 strain. The “Fold changes, IC50 (10 minutes) to IC50 (120 minutes)” value is 3 in data set [3] and 2.1 in data set [3] (listed as LH70 (1)). Further, the “Survival rate (%) from the RSA0-3h, F32-ART (resistant)” value in data set [2] (listed as 1) is listed as 2.3 ± 0.7%; in data set [2] (listed as hybrid 1), roughly 2%. The “In vivo parasitemia reduction (%)” value in the data set with P. berghei-infected mice is recorded as greater than 99%.
Take `C[C@H]1[C@@H](O)O[C@@H]2O[C@@]3(C)CC[C@H]4[C@H](C)CC[C@@H]1[C@@]24OO3` [DHA, dihydroartemisinin, reference compound]: the IC50 in the data set on P. falciparum is 5 nM; in data set [3] (setting [6]), 262 µM; in [3] (setting [7]) it was 161 µM. Besides, the “half-life (t1/2)” value in data set [4] is 1 to 3 h. Moreover, the “plasma peak of DHA in patients” value in [5] was 700 nM.
